The record followed here is publication PMC8692993, “PPARα and PPARγ activation is associated with pleural mesothelioma invasion but therapeutic inhibition is ineffective” (iScience, 2021).

Molecules are shown by their SMILES.

The target of one test is T1, PPARδ (Homo sapiens, UniProt Q03181).
T1 construct: expressed in transfected cells; host or cells: HG5LN (HeLa-derived, GAL4RE-luciferase)
T1 sequence (Q03181 211-439 limits assumed): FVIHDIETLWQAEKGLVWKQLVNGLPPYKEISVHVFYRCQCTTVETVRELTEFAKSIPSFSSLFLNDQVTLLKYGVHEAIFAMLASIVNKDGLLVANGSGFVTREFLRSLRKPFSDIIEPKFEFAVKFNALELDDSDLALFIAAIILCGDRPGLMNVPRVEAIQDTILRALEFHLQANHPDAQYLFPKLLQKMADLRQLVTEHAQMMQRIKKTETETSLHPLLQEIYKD
The experiment in a line: HG5LN reporter cell assay, PPARδ. The test is classed as cell-based. As to conditions: HG5LN PPARδ reporter cells.

A further test deals with T2, PPARα (Homo sapiens, UniProt Q07869).
T2 sequence (Q07869 239-466 limits assumed): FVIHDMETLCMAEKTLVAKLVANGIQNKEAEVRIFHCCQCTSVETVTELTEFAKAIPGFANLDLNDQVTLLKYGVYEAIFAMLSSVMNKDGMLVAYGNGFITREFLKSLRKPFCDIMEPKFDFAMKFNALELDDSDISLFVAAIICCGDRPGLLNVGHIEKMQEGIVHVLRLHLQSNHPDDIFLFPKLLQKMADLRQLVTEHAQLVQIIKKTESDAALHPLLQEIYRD
The experiment in a line: LanthaScreen TR-FRET binding assay, PPARα. As to conditions: 2 h incubation, mean of 3 replicates ± SEM. The procedure:
The LanthaScreen™ TR-FRET binding assay was performed following the manufacturer's guidelines (PV4894, Invitrogen) as follows, 20 mM stock solution of the ligand or control in DMSO were serially diluted using 100% DMSO to produce a range of concentrations from 100 μM to 1 pM. The test compound solutions were mixed with the reaction buffer in a 1 (ligand) in 10 (reaction buffer) dilution for a final 2X ligand concentration. This was mixed with the reaction components (glutathione S-transferase (GST)-PPPARγLBD (0.5 nM)/, terbium (Tb)-labelled anti-GST antibody (5 nM) and Fluormone pan-PPAR green (5 nM for PPARγ; 20 nM for PPARα) at room temperature in a ratio of 8 μLl 2X ligand solution: 4 μLl of 4XFluormone: and 4 μLl 4X GST-PPPARγLBD/terbium (Tb)-labelled anti-GST antibody to produce a final reaction mixture volume of 16 μL. The concentration of DMSO in the final reaction mixture was 5%. The reaction mixture was kept at room temperature for 2 h prior to recording the TR-FRET emission spectra using a CLARIOstar Plus microplate reader (BMG Labtech). […] Results are expressed as the ratio of fluorescence intensity at 520 nm (Fluormone emission) and 490 nm (Tb emission). […] For each compound three serial dilutions were prepared and measured separately. The IC50 and SEM values were determined using a sigmoidal dose-response equation with varying slope using GraphPad Prism.

For another test, the target named is T3, PPARγ (Homo sapiens, UniProt P37231).
T3 sequence (P37231 238-503 limits assumed): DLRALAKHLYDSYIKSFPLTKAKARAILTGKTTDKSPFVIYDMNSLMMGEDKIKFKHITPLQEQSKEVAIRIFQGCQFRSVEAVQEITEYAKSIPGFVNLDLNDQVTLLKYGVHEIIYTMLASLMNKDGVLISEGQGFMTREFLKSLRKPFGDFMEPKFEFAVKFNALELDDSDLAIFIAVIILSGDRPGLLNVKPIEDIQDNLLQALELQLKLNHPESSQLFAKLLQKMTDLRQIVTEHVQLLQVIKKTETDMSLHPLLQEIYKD
The experiment in a line: HG5LN reporter cell assay, PPARγ-mediated transcription. The test is classed as cell-based. Further details: expressed in transfected cells; host or cells: HG5LN (HeLa-derived, GAL4RE-luciferase). The text has this: Nuclear receptors, including PPARα and γ, are ligand-inducible transcription factors that form heterodimers with retinoid X receptors and bind to specific DNA sites located in the enhancer/promoter region of target genes, releasing co-repressors and/or recruiting co-activators ([Wang, 2010]). We therefore assessed the functional consequences of the ligands on PPARα and γ-mediated transcriptional activation in reporter cell lines. These cell lines were generated as previously reported by a two-step transfection procedure ([Seimandi et al., 2005]). First, a stable cell line, HG5LN, expressing the reporter gene (GAL4RE-luciferase) was developed from the HeLa cell line. These cells were then transfected with a plasmid expressing the C-terminal ligand-binding domain of PPARα or γ fused to GAL4 DNA-binding domain. The parental HG5LN cells were used as a control to test non-specific modulation of luciferase expression by the small molecules investigated (Figure S4A). The HG5LN PPAR reporter cells therefore allow comparison of the functional activity at, and selectivity of different ligands for, PPARα and γ. […] As expected ([Abu Aboud et al., 2015]), GW6471 potently antagonized PPARα (Figure 4E and Table 1).
A transfected […] cell line HG5LN was used ([Balaguer et al., 2001]). These cells were cultured in Dubecco's modified Eagle's medium (DMEM-F12 Thermo Fisher Scientific) with phenol red and supplemented with 5% foetal calf serum, incubated at 37°C in a 5% CO2/95% air-humidified atmosphere. Luciferase assays were performed in DMEM-F12 (Thermo Fisher Scientific) without phenol red and supplemented with 5% dextran-coated charcoal-stripped FCS (test culture medium), puromycin (Thermo Fisher Scientific) 0.5 μg/mL and geneticin (Thermo Fisher Scientific) 1 mg/mL. Cells were seeded at a density of 5 x 10^4 cells/well and incubated for 8 h at 37°C in a 96-well plate white opaque tissue culture plates (Becton-Dickinson). Tested compounds were added in serial dilutions and incubated for 16 h at 37°C. After incubation, the medium containing the effectors was carefully removed and replaced by culture medium containing 3 x 10^−4 mol/L luciferin (Sigma Chemicals). After 5 min incubation at room temperature, the 96-well plate was then read with a Microbeta Wallac luminometer and the luminescence was measured in the living cells for 2 s. All experiments were performed in quadruplicate.

Regarding `CCC(=O)NC[C@H](Cc1ccc(OCCc2nc(-c3ccccc3)oc2C)cc1)N/C(C)=C\C(=O)c1ccc(C(F)(F)F)cc1` [GW6471], the “Effect on PPARδ in reporter cell assay” value on PPARδ is reported as “no effect”. Also, the IC50 on PPARα was determined as 95.3 ± 42 nM; on PPARγ (inhibition of agonism by 30 nM rosiglitazone, 16 h incubation, mean of 3 experiments ± SEM), 210 ± 64 nM. On PPARγ, the “Functionality, Type” value is recorded as “antagonist”.
